Reference: patent US20120053119A1, “THERAPEUTIC METHOD FOR INCREASING PANCREATIC BETA CELL MASS” (priority 2009, published 2012)
Ends that are not written are not given here.

How the values were obtained:
INS-1 or Min6 beta cells = test: SDF-1 mRNA by QPCR in injured beta cells; type: cell-based; conditions: 3 to 20 hrs
Experimental: FIG. 15. […] INS-1 or Min6 beta cells were treated for 3 to 20 hrs with the stress/apoptosis inducers, thapsigargin, streptozotocin (STZ), or mixtures of cytokines (listed at the bottom of the right lower panel). SDF-1 mRNA was measured in cell extracts by QPCR. Cytokines also stimulate the secretion of SDF-1 Protein (see new FIG. 21).

Wnt signaling [1] = test: Wnt signaling luciferase reporter assay (TOPflash/FOPflash) in INS-1 cells; type: cell-based
Experimental: Wnt signaling is indicated by the value of TOPflash luciferase activity divided by FOPflash activity. A. Time course of the TOPflash:FOPflash ratio of INS-1 cell treated with 1 nM SDF-1. B. Ratio of TOPflash to FOPflash activity in INS-1 cells treated with increasing doses of SDF-1. C. […] All values are relative to the value of the untreated INS-1 cells. Data are normalized for transfection efficiency by co-transfected beta-galactosidase and represent means±S.D. of three experiments.
All values are relative to the first (leftmost) bar. Statistical significance is depicted as * (p<0.05) when compared with control values (leftmost bar). Data are normalized for transfection efficiency by co-transfected beta-galactosidase and represent means±S.D. of three experiments.
Wnt Signaling Luciferase Reporter Assay (TOPflash) INS-1 cells were plated into 24-well dishes 24 hr before transfection with TOPflash or the mutant, control reporter, FOPflash (1 microg/well) using LipofectAMINE2000 (Invitrogen). Various concentrations of SDF-1 or AMD3100 were then added to the culture medium 24 h following transfection for the indicated period of time. In studies in which inhibitors were used, LY294002 (50 microM), PD98059 (10 microM) or SH-5 (10 nM) were added concomitantly with SDF-1. In studies in which wild-type (wt), dominant-negative (dn) or contitutively-active (ca) forms of kinase were used, dnTCF7L2, dnGSK3beta, caGSK3beta, dnAkt, or caAkt (0.5 microg/well) was cotransfected with TOPflash. Luciferase activity in transfected cells was determined with a luciferase assay kit (Promega).
We examined SDF-1 induction of Wnt signaling using a Wnt signaling reporter assay (TOPflash/FOPflash). The TOPflash and FOPflash constructs contain the luciferase reporter either under the control of consensus TCF7L2-binding sites or mutated TCF7L2-binding sites, respectively. Luciferase activity was measured during 4 hr after addition of 1 nM SDF-1 (FIG. 3A).

INS-1 cells [2] = conditions: serum-free, SDF-1 2 nM, AMD3100 16 nM-2 uM, day 6
Experimental: INS-1 cells were plated in 96 well plates in control medium (no serum) or a medium containing 2% serum.

INS-1 cells [3] = test: ATP-lite cell viability assay, serum deprivation, SDF-1 with AMD3100; type: cell-based; conditions: serum-free, SDF-1 2 nM
Experimental: ATP lite cell viability assay: INS-1 cells were plated in 96 well plates. SDF-1 (2 nM) and AMD3100 were added at day 0, 2, 4 and cell viability was measured at day 6 using relative light units (RLU) as compared to control. N=6.
INS-1 cells were plated in 96 well plates in control medium (no serum) or a medium containing 2% serum. SDF-1 (2 nM) and SDF-1 (2 nM) along with various concentrations of AMD3100 (2 uM, 0.4 uM, 80 nM, 16 nM) were added to different cell groups incubated in serum-free medium at days 0, 2, 4, and cell viability was measured at day 6 using relative light units (RLU) as compared to control.

Wnt signaling [4] = test: Wnt signaling reporter (beta-galactosidase) in isolated islets of TopGal mouse; type: cell-based; conditions: added with SDF-1, isolated TopGal mouse islets
Text: A. Isolated islets express reporter-driven beta-galactosidase. The dark regions mark the expression of beta-galactosidase, an indicator of the activation of the Wnt signaling reporter LacZ transgene. […] B. Polymerase chain reaction showing changes in beta-galactosidase mRNA levels in islets shown in panel A.
Isolated mouse pancreatic islets Mouse islets were isolated (Lacy PE (1994) Pancreatic islet cell transplant. Mt Sinai J. Med. 61:23-31.) from the pancreata of TopGal reporter mice transgenic for the LEF-LacZ Wnt signaling reporter (DasGupta R, Fuchs E (1999) Development. 1999 126:4557-4568.). Freshly isolated islets were treated for 4 hrs with SDF-1 with and without the addition of the Galphai/o inhibitor pertussis toxin (PTX) or the CXCR4 antagonist AMD3100. Betagalactosidase activity was determined by incubation of the islets with X-gal for 6 hrs.
Polymerase chain reaction analyses of betagalactosidase mRNA levels in isolated mouse islets Islets from TopGal mice were harvested after treatments with SDF-1, SDF-1+AMD3100, and SDF-1+pertussis toxin. RNA was extracted and beta galactosidase mRNA levels were measured by PCR using a SYBR Green QPCR kit (Stratagene) with the primers as described in Liu Z, Habener J F 2008 Glucagon-like Peptide-1 Activation of TCF7L2-dependent Wnt Signaling Enhances Pancreatic Beta Cell Proliferation. […]

INS-1 or MIN6 cells = test: Thapsigargin-induced apoptosis, caspase-3 activity assay; type: cell-based; conditions: thapsigargin 1 microM, 16 h
Experimental: FIG. 6. Inhibition of apoptosis by SDF-1 in INS-1 and MIN-6 cells is reversed by knock-down of betacatenin. A. Western blot analysis of extracts from MIN6 cells that were mock treated, thapsigargin-treated (1 μM) and/or siRNA transfected (0.25 mg/ml), by using anti-serum against cleaved caspase-3 (upper panel), anti-serum against cleaved PARP (middle panel) and actin antibody (lower panel) as a loading control. B. Caspase-3 activity (fluorescence/mg proteinx105) of INS-1 or MIN6 cells mock treated, thapsigargin-treated (1 μM) and/or siRNA transfected (0.25 mg/ml). Results are presented as mean±SD for n=3 independent experiments, All values are relative to the first (leftmost) bar. […] Quantification of apoptotic cells is expressed as percent apoptotic cells relative to the total cells counted (lower left panel). […]
Thapsigargin-induced apoptosis in INS-1 or MIN6 cells For western immuoblot assay (Cell Signaling), MIN6 cells were seeded into 6 well plates then treated with 1 microM thapsigargin or DMSO control for 16 h and apoptotic activity was measured by Western immunoblotting using antisera specific for cleaved (active) caspase-3 (Cell signaling #9661) and cleaved (active) PARP (Cell signaling #9548). For caspase-3 assay, INS-1 cells or MIN-6 cells in 24-well plates were treated with 1 microM thapsigargin or DMSO for 16 hand caspase-3 activity was determined (Molecular Probes). […]

insulin producing cells = conditions: in vitro, equimolar quantities; cited from earlier work
pancreatic beta cell = test: Preliminary studies of nonapeptide on pancreatic beta cell survival and growth; type: cell-based; conditions: preliminary data
Text: (§1) The inventors have done preliminary studies using GLP-1(28-36), a nine amino acid peptide (the “nonapeptide”) cleaved from the C-terminus of GLP-1 (SEQ ID NO:4). In the studies, the inventors used the peptide having an arginine amide at the C-terminus (FIAWLVKGR-amide). […] The nonapeptide works both when applied to cells in vitro/ex vivo and when infused into mice in vivo.

mice = test: Infusion of GLP-1(28-36) amide nonapeptide into mice, islet size; type: in vivo; conditions: infusions into mice, preliminary
Text: as §1

[5] = tested on: INS-1 cells and mouse islets; test: GLP-1 pro-proliferative and cytoprotective actions; type: cell-based; conditions: tentative

## CN(N=O)C(=O)N[C@H]1C(O)O[C@H](CO)[C@@H](O)[C@@H]1O (mixture of isomers) [streptozotocin]
INS-1 or Min6 beta cells
  SDF-1 expression (mRNA) in injured beta cells: induces SDF-1 expression

## c1cc(CN2CCCNCCNCCCNCC2)ccc1CN1CCCNCCNCCCNCC1 [AMD3100]
Wnt signaling [1]; coincubation with increasing amounts
  effect on SDF-1 activation of luciferase activity (TOPflash/FOPflash): antagonized
INS-1 cells [2]
  effect on SDF-1 mediated insulin production: partially and dose-dependently blocked
INS-1 cells [3]; AMD3100 16 nM-2 uM
  effect on SDF-1 mediated cell survival: partially and dose-dependently blocked
INS-1 cells [3]; day 6
  effective concentration for blocking SDF-1 mediated cell survival: around 1 uM
Wnt signaling [4]
  effect on SDF-1-induced Wnt signaling response in TopGal islets: inhibition

## COc1cccc(-c2cc(=O)c3ccccc3o2)c1N [PD98059]
Wnt signaling [1]; LY294002 50 microM, PD98059 10 microM, SH-5 10 nM
  effect on SDF-1-stimulated TOPflash activity: does not affect
Wnt signaling [1]; no SDF-1
  effect on basal level TOPflash activity: do not affect

## C/C=C(/C)C(=O)O[C@H]1C(C)=C2[C@H]([C@@H]1OC(=O)CCCCCCC)[C@@](C)(OC(C)=O)C[C@H](OC(=O)CCC)[C@@]1(O)[C@H]2OC(=O)[C@@]1(C)O [Thapsigargin, reference compound]
INS-1 or MIN6 cells
  induction of caspase-3 activity: threefold
INS-1 or Min6 beta cells
  SDF-1 expression (mRNA) in injured beta cells: induces SDF-1 expression

## Exendin-4: GLP-1 agonist peptide from Gila Monster salivary glands, SEQ ID NO: 3
Insulin producing cells
  potency at causing insulin release: more potent than GLP-1

## FIAWLVKGR-amide (FIAWLVKGR-NH2) [GLP-1(28-36) amide nonapeptide]
Pancreatic beta cell
  pancreatic beta cell survival and growth: profound effects
mice
  islet size in mice: enhances islet size

## glucoincretin hormone, SEQ ID NO: 2, HAEGTFTSDVSSYLEGQAAKEFIAWLVKGRG [GLP-1]
[5]
  Kd: 1 nM
  cytoprotective actions (concentration): 10 nM
